Experimental data from patent US6737383B1, “Herbicidal oxadiazolidines” (priority 1999, dated 2004).

What was measured:
[1] = test system: morningglory; experiment: Test B pre/postemergence morningglory; assay type: in vivo, Ipomoea hederacea
Method in brief: (§1)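 Response is a visual 0-to-10 score relative to untreated plants, where 0 means no effect and 10 means complete control, taken twelve to sixteen days after application. Treatments went onto soil at planting and onto foliage of 1- to 4-leaf plants, using a surfactant-containing non-phytotoxic solvent.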

[2] = test system: blackgrass; experiment: Test B pre/postemergence blackgrass; assay type: in vivo, Alopecurus myosuroides
Method in brief: as §1

[3] = test system: surinam grass; experiment: Test B pre/postemergence surinam grass; assay type: in vivo, Brachiaria decumbens
Method in brief: as §1

[4] = test system: purple nutsedge; experiment: Test B pre/postemergence purple nutsedge; assay type: in vivo, Cyperus rotundus
Method in brief: as §1

[5] = test system: rape; experiment: Test B pre/postemergence rape; assay type: in vivo, Brassica napus
Method in brief: as §1

[6] = test system: pigweed; experiment: Test B pre/postemergence pigweed; assay type: in vivo, Amaranthus retroflexus
Method in brief: as §1

[7] = test system: bedstraw; experiment: Test B pre/postemergence bedstraw; assay type: in vivo, Galium aparine; conditions: Preemergence
Method in brief: as §1

[8] = test system: velvetleaf; experiment: Test B pre/postemergence velvetleaf; assay type: in vivo, Abutilon theophrasti
Method in brief: as §1

[9] = test system: cocklebur; experiment: Test B pre/postemergence cocklebur; assay type: in vivo, Xanthium strumarium
Method in brief: as §1

[10] = test system: smallflower flatsedge; experiment: Test B flood test smallflower flatsedge; assay type: in vivo, Cyperus difformis
Method in brief: (§2)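 Plants were grown to the 2-leaf stage before treatment with test chemical, then held in a greenhouse for twelve to sixteen days. Injury was visually rated against untreated controls on a 0–10 scale, where 0 is no effect and 10 is complete control.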

[11] = test system: wild oat; experiment: Test B pre/postemergence wild oat; assay type: in vivo, Avena fatua
Method in brief: as §1

[12] = test system: soybean; experiment: Test B pre/postemergence soybean; assay type: in vivo, Glycine max
Method in brief: as §1

[13] = test system: bamyardgrass; experiment: Test B flood test barnyardgrass; assay type: in vivo, Echinochloa crus-galli
Method in brief: as §2

[14] = test system: wheat; experiment: Test B pre/postemergence wheat; assay type: in vivo, Triticum aestivum
Method in brief: as §1

[15] = test system: duck salad; experiment: Test B flood test duck salad; assay type: in vivo, Heteranthera limosa
Method in brief: as §2

[16] = test system: giant foxtail; experiment: Test B pre/postemergence giant foxtail; assay type: in vivo, Setaria faberii
Method in brief: as §1

[17] = Postemergence, Rate 250 g/ha, scale 0 to 10, 0 is no effect, 10 is complete control
[18] = Postemergence, Rate 500 g/ha, scale of 0 to 10 where 0 is no effect and 10 is complete control
[19] = Preemergence, Rate 62 g/ha, scale 0 to 10 (0 no effect, 10 complete control)
[20] = Preemergence, Rate 125 g/ha, scale of 0 to 10 where 0 is no effect and 10 is complete control
[21] = Preemergence, Rate 250 g/ha, scale 0 to 10, 0 is no effect, 10 is complete control
[22] = Preemergence, Rate 500 g/ha, scale 0 to 10, 0 is no effect, 10 is complete control
[23] = Rate 62 g/ha, Postemergence, scale of 0 to 10 where 0 is no effect and 10 is complete control
[24] = Postemergence, Rate 125 g/ha, scale 0 to 10, 0 is no effect, 10 is complete control
[25] = Preemergence, Rate 250 g/ha, scale of 0 to 10 where 0 is no effect and 10 is complete control
[26] = Rate 62 g/ha, flood test species, Pre-emergence, visual evaluation after twelve to sixteen days
[27] = Rate 125 g/ha, under heading Pre-emergence, flood test species, visual evaluation after twelve to sixteen days
[28] = Rate 250 g/ha, Pre-emergence, flood-test species, scale 0 to 10, 0 is no effect, 10 is complete control
[29] = Rate 500 g/ha, Pre-emergence, flood test species, scale 0 to 10 (0 no effect, 10 complete control)

In the case of `Cc1nc(Cl)sc1C(C)n1c(=O)on(C(=O)N(c2ccc(F)cc2)C(C)C)c1=O` (stereo not drawn) [Compound 401], the “Plant response rating, Morningglory” value [1, 17] is reported as 6, the “Morningglory plant response rating” value [1, 18] is reported as 7 and the “Plant response rating, Morningglory” value [1, 19] is reported as 0. For the same compound, the “Plant response rating, Morningglory” value [1, 20] was 0, the “Morningglory plant response rating” value [1, 21] was 0 and the “Morningglory plant response rating” value [1, 22] was 0. The “Morningglory plant response rating” value [1, 23] was 3, the “Plant response rating, Blackgrass” value [2, 24] was 0 and the “Plant response rating, Blackgrass” value [2, 17] was 0. The “Blackgrass plant response rating” value [2, 18] was 0, the “Plant response rating, Blackgrass” value [2, 19] was 0 and the “Plant response rating, Blackgrass” value [2, 20] was 0. For the same compound, the “Blackgrass plant response rating” value [2, 25] was 0, the “Blackgrass plant response rating” value [2, 22] was 2 and the “Blackgrass plant response rating” value [2, 23] was 0. The “Plant response rating, B. signalgrass” value [3, 24] was 0, the “Plant response rating, B. signalgrass” value [3, 17] was 0 and the “B. signalgrass plant response rating” value [3, 18] was 0. For the same compound, the “Plant response rating, B. signalgrass” value [3, 19] was 0, the “Plant response rating, B. signalgrass” value [3, 20] was 0 and the “B. signalgrass plant response rating” value [3, 25] was 0. For the same compound, the “B. signalgrass plant response rating” value ([3]; Preemergence, Rate 500 g/ha, scale of 0 to 10 where 0 is no effect and 10 is complete control) was 0, the “B. signalgrass plant response rating” value [3, 23] was 0 and the “Plant response rating, Nutsedge” value [4, 17] was 0. For the same compound, the “Nutsedge plant response rating” value [4, 18] was 0, the “Plant response rating, Nutsedge” value [4, 19] was 0 and the “Plant response rating, Nutsedge” value [4, 20] was 0. The “Nutsedge plant response rating” value [4, 21] was 0, the “Nutsedge plant response rating” value [4, 22] was 0 and the “Nutsedge plant response rating” value [4, 23] was 0. For the same compound, the “Rape plant response rating” value [5, 18] was 7, the “Plant response rating, Rape” value [5, 19] was 0 and the “Plant response rating, Rape” value [5, 20] was 0. For the same compound, the “Rape plant response rating” value [5, 21] was 0, the “Rape plant response rating” value [5, 22] was 0 and the “Rape plant response rating” value [5, 23] was 0. For the same compound, the “Plant response rating, Redroot pigweed” value [6, 17] was 1, the “Redroot pigweed plant response rating” value [6, 18] was 2 and the “Plant response rating, Redroot pigweed” value [6, 19] was 0. The “Plant response rating, Redroot pigweed” value [6, 20] was 0, the “Redroot pigweed plant response rating” value [6, 21] was 0 and the “Redroot pigweed plant response rating” value [6, 22] was 0. The “Redroot pigweed plant response rating” value [6, 23] was 0, the “Plant response rating, Bedstraw” value ([7]; Rate 62 g/ha, scale 0 to 10 (0 no effect, 10 complete control)) was 0 and the “Plant response rating, Bedstraw” value ([7]; Rate 125 g/ha, scale of 0 to 10 where 0 is no effect and 10 is complete control) was 0. The “Plant response rating, Velvetleaf” value [8, 17] was 0, the “Velvetleaf plant response rating” value [8, 18] was 3 and the “Plant response rating, Velvetleaf” value [8, 19] was 0. The “Plant response rating, Velvetleaf” value [8, 20] was 0, the “Velvetleaf plant response rating” value [8, 21] was 0 and the “Velvetleaf plant response rating” value [8, 22] was 0. For the same compound, the “Velvetleaf plant response rating” value [8, 23] was 0, the “Plant response rating, Cocklebur” value [9, 24] was 0 and the “Plant response rating, Cocklebur” value [9, 17] was 0. For the same compound, the “Cocklebur plant response rating” value [9, 18] was 1, the “Plant response rating, Cocklebur” value [9, 19] was 0 and the “Plant response rating, Cocklebur” value [9, 20] was 0. The “Cocklebur plant response rating” value [9, 21] was 0, the “Cocklebur plant response rating” value [9, 22] was 0 and the “Cocklebur plant response rating” value [9, 23] was 0. The “Plant response rating, S. Flatsedge (0 to 10 scale, 0 is no effect, 10 is complete control)” value [10, 26] was 0, the “S. Flatsedge plant response rating (0 to 10 scale, 0 is no effect, 10 is complete control)” value [10, 27] was 0 and the “S. Flatsedge plant response rating” value [10, 28] was 0. The “S. Flatsedge plant response rating” value [10, 29] was 0, the “Wild oats plant response rating” value [11, 18] was 0 and the “Plant response rating, Wild oats” value [11, 19] was 0. The “Plant response rating, Wild oats” value [11, 20] was 0, the “Wild oats plant response rating” value [11, 21] was 0 and the “Wild oats plant response rating” value [11, 22] was 0. The “Wild oats plant response rating” value [11, 23] was 0, the “Plant response rating, Soybean” value [12, 17] was 1 and the “Soybean plant response rating” value [12, 18] was 1. For the same compound, the “Plant response rating, Soybean” value [12, 19] was 0, the “Plant response rating, Soybean” value [12, 20] was 0 and the “Soybean plant response rating” value [12, 21] was 0. For the same compound, the “Soybean plant response rating” value [12, 22] was 3, the “Soybean plant response rating” value [12, 23] was 0 and the “Plant response rating, Barnyardgrass (0 to 10 scale, 0 is no effect, 10 is complete control)” value [13, 26] was 0. For the same compound, the “Barnyardgrass plant response rating (0 to 10 scale, 0 is no effect, 10 is complete control)” value [13, 27] was 0, the “Barnyardgrass plant response rating” value [13, 28] was 0 and the “Barnyardgrass plant response rating” value [13, 29] was 0. The “Wheat plant response rating” value [14, 18] was 0, the “Plant response rating, Wheat” value [14, 19] was 0 and the “Plant response rating, Wheat” value [14, 20] was 0. The “Wheat plant response rating” value [14, 21] was 0, the “Wheat plant response rating” value [14, 22] was 0 and the “Wheat plant response rating” value [14, 23] was 0. The “Plant response rating, Ducksalad (0 to 10 scale, 0 is no effect, 10 is complete control)” value [15, 26] was 0, the “Ducksalad plant response rating (0 to 10 scale, 0 is no effect, 10 is complete control)” value [15, 27] was 0 and the “Ducksalad plant response rating” value [15, 28] was 0. For the same compound, the “Ducksalad plant response rating” value [15, 29] was 0, the “Plant response rating, Giant foxtail” value [16, 24] was 0 and the “Plant response rating, Giant foxtail” value [16, 17] was 2. The “Giant foxtail plant response rating” value [16, 18] was 6, the “Plant response rating, Giant foxtail” value [16, 19] was 0 and the “Plant response rating, Giant foxtail” value [16, 20] was 6. The “Giant foxtail plant response rating” value [16, 21] was 7, the “Giant foxtail plant response rating” value [16, 22] was 8 and the “Giant foxtail plant response rating” value [16, 23] was 0.
